{"source": "paper PMC8636460", "about": "“Pharmacological and Biophysical Characteristics of Picrotoxin-Resistant, δSubunit-Containing GABAA Receptors” (Frontiers in Synaptic Neuroscience, 2021)", "key": {"[1]": {"target": "T1, α4β2δ GABAAR (human α4, rat β2, rat δ with N-terminal FLAG) (Rattus norvegicus (beta2, delta); Homo sapiens (alpha4), UniProt P18506+P48169+P63138, P18506:T285Y)", "T1 construct": "gene GABRA4; free full subunits transiently transfected (cDNA α:β:δ 1:1:2) in mouse Neuro-2a cells", "T1 sequence (P48169 36-554)": "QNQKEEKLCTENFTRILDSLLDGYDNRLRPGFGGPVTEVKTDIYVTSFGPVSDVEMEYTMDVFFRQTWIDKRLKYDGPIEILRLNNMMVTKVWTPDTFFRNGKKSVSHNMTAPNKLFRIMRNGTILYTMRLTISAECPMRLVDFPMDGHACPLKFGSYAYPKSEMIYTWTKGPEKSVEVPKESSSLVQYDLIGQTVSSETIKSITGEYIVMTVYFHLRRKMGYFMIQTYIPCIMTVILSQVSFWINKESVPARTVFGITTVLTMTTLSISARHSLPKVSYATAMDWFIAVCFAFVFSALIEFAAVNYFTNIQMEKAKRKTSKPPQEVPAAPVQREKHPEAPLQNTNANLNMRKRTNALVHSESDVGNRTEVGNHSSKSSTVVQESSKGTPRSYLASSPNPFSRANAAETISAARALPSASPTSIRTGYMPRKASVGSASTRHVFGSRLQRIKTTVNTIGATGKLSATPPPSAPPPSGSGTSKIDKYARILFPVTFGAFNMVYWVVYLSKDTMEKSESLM", "T1 sequence (P63138 26-474)": "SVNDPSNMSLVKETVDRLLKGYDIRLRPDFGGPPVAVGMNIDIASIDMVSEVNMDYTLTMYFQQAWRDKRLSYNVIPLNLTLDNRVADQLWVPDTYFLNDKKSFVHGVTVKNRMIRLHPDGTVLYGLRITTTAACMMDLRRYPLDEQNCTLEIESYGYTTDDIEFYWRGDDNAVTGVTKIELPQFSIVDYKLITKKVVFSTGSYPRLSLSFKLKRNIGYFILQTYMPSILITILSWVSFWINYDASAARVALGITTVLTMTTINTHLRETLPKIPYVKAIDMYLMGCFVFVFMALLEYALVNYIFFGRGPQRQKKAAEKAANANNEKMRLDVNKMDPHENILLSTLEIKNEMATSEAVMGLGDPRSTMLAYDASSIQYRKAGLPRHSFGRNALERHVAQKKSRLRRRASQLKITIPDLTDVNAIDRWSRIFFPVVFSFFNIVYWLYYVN", "test": "whole-cell patch clamp in transfected N2a cells, agonist concentration response, Hill fit", "type": "cell-based"}, "[2]": {"target": "T2, α4β2δ GABAAR (human α4, rat β2, rat δ with N-terminal FLAG) (Rattus norvegicus (beta2, delta); Homo sapiens (alpha4), UniProt P18506+P48169+P63138)", "T2 construct": "gene GABRA4; free full subunits transiently transfected (cDNA α:β:δ 1:1:2) in mouse Neuro-2a cells", "T2 sequence (P63138 26-474)": "as above", "T2 sequence (P48169 36-554)": "as the sequence (P48169 36-554) above", "T2 sequence (P18506 25-449)": "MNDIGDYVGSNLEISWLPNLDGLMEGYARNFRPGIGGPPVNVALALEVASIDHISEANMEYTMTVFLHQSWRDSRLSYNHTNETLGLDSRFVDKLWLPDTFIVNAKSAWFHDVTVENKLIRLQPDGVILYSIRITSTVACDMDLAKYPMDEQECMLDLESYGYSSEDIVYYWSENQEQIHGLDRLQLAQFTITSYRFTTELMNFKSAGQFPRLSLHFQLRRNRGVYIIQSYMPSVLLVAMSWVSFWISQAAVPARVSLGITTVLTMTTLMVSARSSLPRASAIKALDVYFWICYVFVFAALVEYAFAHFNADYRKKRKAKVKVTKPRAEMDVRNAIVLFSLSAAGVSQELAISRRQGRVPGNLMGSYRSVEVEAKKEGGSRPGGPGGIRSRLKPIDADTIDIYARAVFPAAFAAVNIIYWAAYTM", "test": "whole-cell patch clamp in transfected N2a cells, agonist concentration response, Hill fit", "type": "cell-based"}}}
{"smiles": "Oc1noc2c1CCNC2", "note": "[THIP, 4,5,6,7-tetrahydroisoxazolo[5,4-c]pyridin-3-ol]", "values": [{"measurement": "EC50", "setting": "[1]", "value": 16.7, "unit": "µM"}, {"measurement": "EC50", "setting": "[2]", "value": 38.7, "unit": "µM"}]}
